What was measured:
[1] = tested on: monoamine oxidase (MAO); assay: MAO inhibiting activity in liver homogenates of rats one hour after p.o. administration; type: in vivo; settings: p.o. in the rat; MAO activity measured in liver homogenates one hour after administration; 60 min
Experimental: (§1) Thus, the thiobenzamides of formula I to be tested were administered p.o. to rats. One hour after the administration, the rats were killed and the MAO inhibiting activity in the liver homogenates was measured according to the method in Biochem. Pharmacol. 12, pp. 1439-1441 (1963). The thus determined activity of representative thiobenzamides of formula I as well as their toxicity is evident from the ED50 values (μmol/kg, p.o. in the rat) or LD50 values (mg/kg, p.o. in the mouse) listed in the Table which follows: […]

[2] = Toxicity (LD50), p.o. in the mouse; settings: in vivo, po
Experimental: as §1

Structure (SMILES) | ED50 (MAO inhibiting activity) [1] [µmol/kg] | LD50 [2] [mg/kg]
S=C(NCCN1CCOCC1)c1ccc(Br)cc1 [p-bromo-N-(2-morpholinoethyl)-thiobenzamide] | 2 | 1250 to 2500
S=C(NCCN1CCOCC1)c1ccc(Cl)cc1 [p-chloro-N-(2-morpholinoethyl)thiobenzamide] | 2 | 1250 to 2500
CC(C)(C)c1ccc(C(=S)NCCN2CCOCC2)cc1 [p-t-butyl-N-(2-morpholinoethyl)-thiobenzamide] | 10 | > 5000

From patent US4226865A, “Method of treating depression” (Hoffmann-La Roche Inc., priority 1976, dated 1980)
